ChEMBL document CHEMBL4616612, “Synthesis and inhibitory effect of cis-guggulsterone on lipopolysaccharide-induced production of nitric oxide in macrophages” (Bioorg Med Chem Lett, 2020)
The source made the active and inactive calls. The rule behind the calls is not given here.

How the values were obtained:
[1] = tested on: RAW264.7; experiment: Anti-inflammatory activity in mouse RAW264.7 cells assessed as inhibition of LPS-induced NO production preincubated for 1 hr followed by LPS addition and measured after 24 hrs; assay type: functional, cell-based
[2] = tested on: RAW264.7; experiment: Anti-inflammatory activity in mouse RAW264.7 cells assessed as reduction in LPS-induced iNOS protein level at 6.25 to 12.5 microM by Western blot analysis; assay type: functional, cell-based
[3] = tested on: RAW264.7; experiment: Anti-inflammatory activity in mouse RAW264.7 cells assessed as reduction in LPS-induced TNFalpha level preincubated for 2 hrs followed by LPS addition and measured after 18 hrs by ELISA; assay type: functional, cell-based
[4] = tested on: RAW264.7; experiment: Anti-inflammatory activity in mouse RAW264.7 cells assessed as reduction in LPS-induced IL6 level preincubated for 2 hrs followed by LPS addition and measured after 18 hrs by ELISA; assay type: functional, cell-based
[5] = tested on: RAW264.7; experiment: Anti-inflammatory activity in mouse RAW264.7 cells assessed as reduction in LPS-induced COX2 protein level at 6.25 to 12.5 microM by Western blot analysis; assay type: functional, cell-based
[6] = Cytotoxicity against mouse RAW264 cells assessed as reduction in cell viability at 25 uM incubated for 24 hrs by MTT assay; assay type: cell-based
[7] = Cytotoxicity against mouse RAW264 cells assessed as reduction in cell viability up to 25 uM incubated for 24 hrs by MTT assay; assay type: cell-based

For `COC(=O)[C@@H](N)CCCNC(=N)N[N+](=O)[O-]`, the inhibition [1] was “Active”.

In the case of `C/C=C1/C(=O)C[C@H]2[C@@H]3CCC4=CC(=O)CC[C@]4(C)[C@H]3CC[C@]12C` [E-GUGGULSTERONE], the Activity [2] is reported as “Active”, the Activity [1] is reported as “Dose-dependent effect” and the Activity [3] is reported as “Dose-dependent effect”. For the same molecule, the Activity [4] was “Dose-dependent effect”, the Activity [5] was “Active” and the Activity [6] was “Toxic”.

In the case of `C/C=C1\C(=O)C[C@H]2[C@@H]3CCC4=CC(=O)CC[C@]4(C)[C@H]3CC[C@]12C` [GUGGULSTERONE], the Activity [1] is reported as “Dose-dependent effect” and the Activity [7] is reported as “Non-Toxic”.
